Test results from US20240099302A1, “Use of a Biobased Composition Comprising Ferulated Chitosan for Regulating and Stimulating Plant Growth” (FYTEKO SA, priority 2020, published 2024).

Tested on: new guinea impatient plants cultivar Sony pink
Experiment: Effect of foliar spraying on flowering of new guinea impatient plants
Type: in vivo
Conditions: foliar spraying once a week for 8 weeks, evaluated 22 weeks after sowing
Method: Different treatments were applied by foliar spraying on one-month old new guinea impatient plants cultivar Sony pink once a week for 8 weeks. The effect of foliage of application on the inflorescence was evaluated at the end of the flowering step (22 weeks after sowing) and the results are shown in Table 12.

Compound	Average diameter of the flowers [cm]	Total number of flowers per plant
COc1cc(/C=C/C(=O)O)ccc1O [Ferulic acid]	6.40	60.0
Diferulic acid	6.52	74.2
